“And” between values parts separate entries of the source, which are not always exact repeats. Identical values can stand only once. Toxic doses and inconclusive results are not listed.
System: P388 leukemia ip, CD2F1 mice, survival T/C
Test: NCI In Vivo Anticancer Drug Screen. Data for tumor model P388 Leukemia (intraperitoneal) in CD2F1 (CDF1) mice
Details: endpoint: median survival time, higher = longer survival
Procedure, shortened: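 Mice carrying the transplanted tumor received test compound or vehicle. Survival was recorded in each group, and the value is the treated-group measurement divided by that of the vehicle-treated control group.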

[1] = dose: 100.0 mg/kg/injection, schedule: Q04DX003 (ip), vehicle: Klucel (hydroxypropylcellulose) (HPC)
[2] = dose: 200.0 mg/kg/injection, schedule: Q04DX003 (ip), vehicle: Klucel (hydroxypropylcellulose) (HPC)
[3] = dose: 400.0 mg/kg/injection, schedule: Q04DX003 (ip), vehicle: Klucel (hydroxypropylcellulose) (HPC)
[4] = dose: 50.0 mg/kg/injection, schedule: Q01DX009 (ip), vehicle: saline with Tween-80

With `CCN(CC)C(=O)OC1c2ccccc2C2CC1c1ccccc1C2O` (stereo not given) the T/C [1] was 97 % of control, the T/C [2] was 102 % of control and the T/C [3] was 89 % of control.

With `COc1cc(C)c2c(c1OC)C(=O)OC2` the T/C [1] was 98 % of control, the T/C [2] was 97 % of control and the T/C [3] was 98 % of control.

In the case of `CC(C)(CCl)C(=O)NN=C(c1ccccc1)c1ccccc1`, the T/C [4] is reported as 107 % of control, the T/C (dose: 100.0 mg/kg/injection, schedule: Q01DX009 (ip), vehicle: saline with Tween-80) is reported as 107 % of control and the T/C (dose: 200.0 mg/kg/injection, schedule: Q01DX009 (ip), vehicle: saline with Tween-80) is reported as 110 % of control.

With `C[Si](C)(C)N=S=N[Si](C)(C)C` the T/C (dose: 50.0 mg/kg/injection, schedule: Q01DX005 (ip), vehicle: saline with Tween-80) was 101 % of control and the T/C (dose: 100.0 mg/kg/injection, schedule: Q01DX005 (ip), vehicle: saline with Tween-80) was 108 % of control.

With `CCOC(=O)c1ccc(NC(=O)Nc2cccc(O)c2)cc1` the T/C (dose: 60.0 mg/kg/injection, schedule: Q01DX005 (ip), vehicle: Klucel (hydroxypropylcellulose) (HPC)) was 107 % of control, the T/C (dose: 120.0 mg/kg/injection, schedule: Q01DX005 (ip), vehicle: Klucel (hydroxypropylcellulose) (HPC)) was 104 % of control and the T/C (dose: 240.0 mg/kg/injection, schedule: Q01DX005 (ip), vehicle: Klucel (hydroxypropylcellulose) (HPC)) was 91 % of control.

`COC12C(COC(=O)NCCO)C3=C(C(=O)C(C)=C(N)C3=O)N1CC1NC12` (stereo not given) was tested, and the T/C (dose: 3.12 mg/kg/injection, schedule: Q01DX009 (ip), vehicle: Klucel (hydroxypropylcellulose) (HPC)) was 122 % of control, the T/C (dose: 3.13 mg/kg/injection, schedule: Q01DX009 (ip), vehicle: Klucel (hydroxypropylcellulose) (HPC)) was 169 % of control and the T/C (dose: 4.5 mg/kg/injection, schedule: Q01DX009 (ip), vehicle: Klucel (hydroxypropylcellulose) (HPC)) was 155 % of control. For the same compound, the T/C (dose: 6.25 mg/kg/injection, schedule: Q01DX009 (ip), vehicle: Klucel (hydroxypropylcellulose) (HPC)) was 163 % of control and 175 % of control, the T/C (dose: 9.0 mg/kg/injection, schedule: Q01DX009 (ip), vehicle: Klucel (hydroxypropylcellulose) (HPC)) was 190 % of control and the T/C (dose: 12.5 mg/kg/injection, schedule: Q01DX009 (ip), vehicle: Klucel (hydroxypropylcellulose) (HPC)) was 160 % of control and 212 % of control. The T/C (dose: 18.0 mg/kg/injection, schedule: Q01DX009 (ip), vehicle: Klucel (hydroxypropylcellulose) (HPC)) was 192 % of control and 201 % of control and 238 % of control, the T/C (dose: 25.0 mg/kg/injection, schedule: Q01DX009 (ip), vehicle: Klucel (hydroxypropylcellulose) (HPC)) was 211 % of control and 214 % of control and the T/C (dose: 28.0 mg/kg/injection, schedule: Q01DX009 (ip), vehicle: Klucel (hydroxypropylcellulose) (HPC)) was 181 % of control and 182 % of control. For the same compound, the T/C (dose: 43.0 mg/kg/injection, schedule: Q01DX009 (ip), vehicle: Klucel (hydroxypropylcellulose) (HPC)) was 92 % of control and the T/C (dose: 50.0 mg/kg/injection, schedule: Q01DX009 (ip), vehicle: Klucel (hydroxypropylcellulose) (HPC)) was 104 % of control.

For `O=C1Nc2ccccc2/C1=N/N=c1\scc(-c2ccc(Br)cc2)n1-c1ccc(Cl)cc1`, the T/C (dose: 50.0 mg/kg/injection, schedule: Q01DX001 (ip), vehicle: saline with Tween-80) was 93 % of control, the T/C (dose: 100.0 mg/kg/injection, schedule: Q01DX001 (ip), vehicle: saline with Tween-80) was 99 % of control and the T/C (dose: 200.0 mg/kg/injection, schedule: Q01DX001 (ip), vehicle: saline with Tween-80) was 89 % of control and 94 % of control.

With `COC(=O)C(=O)C1(c2ccccc2)C(=O)C(c2ccccc2)=CC1O` (stereo not given) the T/C (dose: 60.0 mg/kg/injection, schedule: Q01DX005 (ip), vehicle: saline + Tween-80 + alcohol) was 104 % of control, the T/C (dose: 120.0 mg/kg/injection, schedule: Q01DX005 (ip), vehicle: saline + Tween-80 + alcohol) was 101 % of control and the T/C (dose: 240.0 mg/kg/injection, schedule: Q01DX005 (ip), vehicle: saline + Tween-80 + alcohol) was 100 % of control.

`CC(=O)NN` was tested, and the T/C [4] was 104 % of control, the T/C (dose: 50.0 mg/kg/injection, schedule: Q04DX003 (ip), vehicle: saline) was 105 % of control and the T/C (dose: 100.0 mg/kg/injection, schedule: Q04DX003 (ip), vehicle: saline) was 100 % of control. The T/C (dose: 200.0 mg/kg/injection, schedule: Q04DX003 (ip), vehicle: saline) was 100 % of control.
